Measured values published in publication PMC8063180 (Cell Reports. Physical Science, 2021).
≈ marks a conversion by molar mass, not a printed value. Peptide text beside a SMILES is read from it.

How the values were obtained:
Dynamic light scattering = format: physicochemical; settings: pH 6.8, room temperature
physchem = format: physicochemical; settings: for Fold lower critical concentration compared with AFA: at the highest measured temperature
[1] = format: physicochemical; settings: for Effect of polyphenols (EGCG, TA, RA) on critical soluble concentration: increasing inhibitor ratio, dose-dependent
[2] = aqueous solution; cited from earlier work
[3] = pH 6.8, Water solubility (critical soluble concentration), pure water, room temperature, pH 6.8
[4] = water, room temperature, pH 6.8

SMILES: C[C@H](N)C(=O)N[C@@H](C)C(=O)N[C@@H](Cc1ccccc1)C(=O)O [AAF] (H-Ala-Ala-Phe-OH)
- DLS cluster size (Dynamic light scattering; 100 mM in water): approximately 4,000 nm
- DLS cluster size (Dynamic light scattering; above 40 mM in water): remained constant
- Fold lower critical concentration compared with AFA (physchem): ~6 fold
- solubility at 2 min (physchem; [3]): 105 mM (≈ 32.3 mg/mL)
- Effect of polyphenols (EGCG, TA, RA) on critical soluble concentration [1]: significant increase
- Fold increase of solubility by TA ([1]; peptide:TA 1:2, versus no inhibitor): 3 fold

SMILES: C[C@H](N)C(=O)N[C@@H](Cc1ccccc1)C(=O)N[C@@H](C)C(=O)O [AFA, Ala-Phe-Ala] (H-Ala-Phe-Ala-OH)
- DLS cluster size (Dynamic light scattering; 100 mM in water): persisted
- DLS cluster size (Dynamic light scattering; above 40 mM in water): remained constant
- Reported critical concentration [2]: up to 10 mM
- solubility (physchem; Water solubility, water, 70°C): 702 mM (≈ 216 mg/mL)
- solubility (physchem; Water solubility, water, 90°C): 720 mM (≈ 221 mg/mL)
- solubility (physchem; Water solubility, water, near the boiling point of water): 710 mM (≈ 218 mg/mL)
- Minimal critical concentration (physchem; around pH 6–7, room temperature): 668 mM
- solubility (physchem; [3]): 672 mM (≈ 207 mg/mL)
- Water solubility (physchem; pH approaching the pKa value of either terminus, room temperature): 672 mM
- Fold higher solubility compared with AAF (physchem; [4]): 6 fold
- Fold higher solubility compared with FAA (physchem; [4]): 15 fold
- Effect of inhibitors (EGCG, TA, RA) on solubility ([1]; molar ratios 1:0.1–1:0.3): unable to significantly alter

SMILES: C[C@H](N)C(=O)N[C@@H](Cc1ccccc1)C(=O)N[C@@H](Cc1ccccc1)C(=O)O [AFF, reference compound] (H-Ala-Phe-Phe-OH)
- solubility (physchem; [3]): 98.3 mM (≈ 37.7 mg/mL)
- Fold higher solubility compared with GFF (physchem; [4]): 6 fold

SMILES: C[C@H](NC(=O)[C@H](C)NC(=O)[C@@H](N)Cc1ccccc1)C(=O)O [FAA] (H-Phe-Ala-Ala-OH)
- DLS cluster size (Dynamic light scattering; above 40 mM in water): approximately 2000 nm
- Fold lower critical concentration compared with AFA (physchem): ~15 fold
- solubility (physchem; [3]): 42 mM (≈ 12.9 mg/mL)
- Effect of polyphenols (EGCG, TA, RA) on critical soluble concentration [1]: significant increase

SMILES: N[C@@H](Cc1ccccc1)C(=O)N[C@@H](Cc1ccccc1)C(=O)O [FF, reference compound] (H-Phe-Phe-OH)
- solubility (physchem; [3]): 8.1 mM (≈ 2.53 mg/mL)

SMILES: N[C@@H](Cc1ccccc1)C(=O)N[C@@H](Cc1ccccc1)C(=O)N[C@@H](Cc1ccccc1)C(=O)O [FFF, reference compound] (H-Phe-Phe-Phe-OH)
- solubility (physchem; [3]): 0.5 mM (≈ 0.23 mg/mL)

SMILES: CC(C)C[C@H](NC(=O)[C@@H](N)Cc1ccccc1)C(=O)O [FL, reference compound] (H-Phe-Leu-OH)
- solubility (physchem; [3]): 28.3 mM (≈ 7.88 mg/mL)

SMILES: NCC(=O)N[C@@H](Cc1ccccc1)C(=O)N[C@@H](Cc1ccccc1)C(=O)O [GFF, reference compound] (H-Gly-Phe-Phe-OH)
- solubility (physchem; [3]): 14.5 mM (≈ 5.36 mg/mL)

SMILES: CC(C)C[C@H](N)C(=O)N[C@@H](Cc1ccccc1)C(=O)O [LF, reference compound] (H-Leu-Phe-OH)
- solubility (physchem; [3]): 19.4 mM (≈ 5.4 mg/mL)

SMILES: O=C(O)[C@H](Cc1ccccc1)NC(=O)[C@H](Cc1ccccc1)NC(=O)[C@@H]1CCCN1 [PFF, reference compound] (H-Pro-Phe-Phe-OH)
- solubility (physchem; [3]): 2.6 mM (≈ 1.06 mg/mL)
